One assay concerns the target FGFR4 (Homo sapiens, UniProt P22455). As to the kind of experiment: FGFR inhibition assay (33P-ATP radiometric kinase assay), FGFR4. It is filed as biochemical. Conditions: for IC50: 0.2 mg/mL poly[Glu:Tyr] (4:1) substrate, 10 μM final ATP, 2 hours at room temperature; for inhibition of FGFR4 compared with FGFR1 (selectivity): concentration inhibiting FGFR4 versus concentration inhibiting FGFR1, from Table 2 IC50 values. How it is done: (§1) The potency of test compounds in inhibiting FGFR1 and FGFR4 was determined. 20 μM of [KKKSPGEYVNIEFG] peptide substrate was added to the reaction buffer (20 mM 4-(2-hydroxyethyl)-1-piperazineethanesulfonic acid (HEPES) (pH 7.5), 10 mM MgCl2, 1 mM egtazic acid (EGTA), 0.02% BRIJ®-35, 0.02 mg/ml bovine serum albumin (BSA), 0.1 mM Na3VO4, 2 mM dithiothreitol (DTT), and 1% DMSO) for FGFR1. 0.2 mg/mL of poly[Glu:Tyr] (4:1) peptide substrate was added to the reaction buffer (20 mM 4-(2-hydroxyethyl)-1-piperazineethanesulfonic acid (HEPES) (pH 7.5), 10 mM MgC12, 1 mM egtazic acid (EGTA), 0.02% BRIJ®-35, 0.02 mg/ml bovine serum albumin (BSA), 0.1 mM Na3VO4, 2 mM dithiothreitol (DTT), and 1% DMSO) for FGFR4. Next, FGFR1 or FGFR4 was added to the substrate solution and gently mixed.
(§2) Test compounds were dissolved in 100% dimethyl sulphoxide (DMSO) and then three-fold serially diluted in DMSO using an epMotion® 5070 robotic pipettor. The diluted test compounds, from 0.00001 M to 5.08053E-10 M, were added to corresponding substrate solutions, and the resulting substrate/compound solutions were incubated for 20 min at room temperature. Radioactive ATP (^33P-ATP) was added to each substrate/compound solution to initiate the kinase activity of FGFR1 or FGFR4 and were incubated for 2 hours at room temperature (10 μM final [ATP]). Reactions were spotted onto P81 ion exchange paper, washed to remove excess radiolabeled ATP and kinase activity determined by quantification of radioactive spots.
(§3) The half maximal inhibitory concentration (IC50) values for FGFR1 and FGFR4 were determined for each compound assayed and are shown in Table 2.

The target of a further assay is FGFR1 (Homo sapiens, UniProt P11362). As to the kind of experiment: FGFR inhibition assay (33P-ATP radiometric kinase assay), FGFR1. It is filed as biochemical. Conditions: 20 μM KKKSPGEYVNIEFG peptide substrate, 10 μM final ATP, 2 hours at room temperature. How it is done: as §1, §2, §3

Structures are written as SMILES.

FGFR4, sequence (P22455 22-802): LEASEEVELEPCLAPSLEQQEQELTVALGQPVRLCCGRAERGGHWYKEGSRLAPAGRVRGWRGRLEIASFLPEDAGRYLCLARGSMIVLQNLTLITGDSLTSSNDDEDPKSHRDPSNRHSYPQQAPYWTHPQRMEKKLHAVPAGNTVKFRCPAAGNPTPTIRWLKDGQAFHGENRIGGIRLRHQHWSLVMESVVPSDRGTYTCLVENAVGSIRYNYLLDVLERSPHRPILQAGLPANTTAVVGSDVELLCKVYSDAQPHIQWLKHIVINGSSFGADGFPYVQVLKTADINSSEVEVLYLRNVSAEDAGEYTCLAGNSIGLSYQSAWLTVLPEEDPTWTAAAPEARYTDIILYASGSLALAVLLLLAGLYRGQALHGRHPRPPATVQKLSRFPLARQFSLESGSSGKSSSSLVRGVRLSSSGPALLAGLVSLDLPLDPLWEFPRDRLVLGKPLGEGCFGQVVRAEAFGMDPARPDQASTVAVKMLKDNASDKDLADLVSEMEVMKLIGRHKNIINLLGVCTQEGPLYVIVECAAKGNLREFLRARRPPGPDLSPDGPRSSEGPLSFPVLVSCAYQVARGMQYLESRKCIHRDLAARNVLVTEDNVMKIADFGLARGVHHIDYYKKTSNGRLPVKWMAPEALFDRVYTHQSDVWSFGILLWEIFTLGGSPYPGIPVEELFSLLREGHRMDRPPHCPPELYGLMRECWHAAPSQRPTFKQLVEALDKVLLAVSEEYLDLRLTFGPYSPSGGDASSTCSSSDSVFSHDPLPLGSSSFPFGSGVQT
FGFR1, sequence (P11362 22-822): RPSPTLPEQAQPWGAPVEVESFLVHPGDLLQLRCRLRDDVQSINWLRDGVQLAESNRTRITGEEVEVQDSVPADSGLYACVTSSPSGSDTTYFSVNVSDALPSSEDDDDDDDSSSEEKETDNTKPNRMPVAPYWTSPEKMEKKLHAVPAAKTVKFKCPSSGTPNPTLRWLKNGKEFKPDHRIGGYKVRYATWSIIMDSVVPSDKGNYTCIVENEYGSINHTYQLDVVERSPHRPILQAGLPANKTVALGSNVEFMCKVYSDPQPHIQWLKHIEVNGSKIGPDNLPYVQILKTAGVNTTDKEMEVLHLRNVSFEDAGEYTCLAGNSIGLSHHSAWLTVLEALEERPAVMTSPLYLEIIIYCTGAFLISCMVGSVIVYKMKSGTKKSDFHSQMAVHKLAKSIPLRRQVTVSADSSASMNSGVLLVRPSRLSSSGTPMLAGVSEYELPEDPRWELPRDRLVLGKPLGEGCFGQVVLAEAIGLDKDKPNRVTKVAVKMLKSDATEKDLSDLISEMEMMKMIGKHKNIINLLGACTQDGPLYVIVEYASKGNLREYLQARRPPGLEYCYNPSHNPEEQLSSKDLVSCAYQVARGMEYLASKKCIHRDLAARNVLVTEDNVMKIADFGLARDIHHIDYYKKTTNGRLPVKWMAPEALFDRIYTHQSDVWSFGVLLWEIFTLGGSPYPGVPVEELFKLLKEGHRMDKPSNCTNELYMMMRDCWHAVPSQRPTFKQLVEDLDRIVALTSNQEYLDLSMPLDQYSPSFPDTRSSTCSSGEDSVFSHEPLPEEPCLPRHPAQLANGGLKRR

Take `COc1cc(OC)c(F)c(COc2cnc(NC(=O)N3CCCc4ccc(C=O)nc43)nc2)c1F` [Example 1, N-(5-((2,6-difluoro-3,5-dimethoxybenzyl)oxy)pyrimidin-2-yl)-7-formyl-3,4-dihydro-1,8-naphthyridine-1(2H)-carboxamide]: the results for the IC50 against FGFR4 and against FGFR1 were 0.8 nM and 5600 nM, respectively. In addition, the “inhibition of FGFR4 compared with FGFR1 (selectivity)” value on FGFR4 is on record as “dramatically lower concentration”.

Regarding `COc1cc(OC)c(F)c(COc2ccc(NC(=O)N3CCCc4ccc(C=O)nc43)nc2)c1F` [Example 2, N-(5-((2,6-difluoro-3,5-dimethoxybenzyl)oxy)pyridin-2-yl)-7-formyl-3,4-dihydro-1,8-naphthyridine-1(2H)-carboxamide], on FGFR4, the IC50 (commonly the concentration that inhibits the measured activity by half) is 5.9 nM and the “inhibition of FGFR4 compared with FGFR1 (selectivity)” value is “dramatically lower concentration”. Further, the IC50 on FGFR1 is greater than 10000 nM.

On to `COc1cc(OC)c(F)c(COc2cnc(NC(=O)N3CCCc4cc(CN5CCN(C)CC5=O)c(C=O)nc43)nc2)c1F` [Example 3, N-(5-((2,6-difluoro-3,5-dimethoxybenzyl)oxy)pyrimidin-2-yl)-7-formyl-6-((4-methyl-2-oxopiperazin-1-yl)methyl)-3,4-dihydro-1,8-naphthyridine-1(2H)-carboxamide], for which the 50% inhibitory concentration (IC50) was less than 0.5 nM against FGFR4 and 140 nM at FGFR1.

For `COc1cc(OC)c(F)c(COc2cnc(NC(=O)N3CCCc4c(C)cc(C=O)nc43)nc2)c1F` [Example 5, N-(5-((2,6-difluoro-3,5-dimethoxybenzyl)oxy)pyrimidin-2-yl)-7-formyl-5-methyl-3,4-dihydro-1,8-naphthyridine-1(2H)-carboxamide], the values for the IC50 against FGFR4 and at FGFR1 were 1.9 nM and 130 nM, respectively.

`COc1cc(OC)c(F)c(CCc2cnc(NC(=O)N3CCCc4ccc(C=O)nc43)nc2)c1F` [Example 6, N-(5-(2,6-difluoro-3,5-dimethoxyphenethyl)pyrimidin-2-yl)-7-formyl-3,4-dihydro-1,8-naphthyridine-1(2H)-carboxamide]: the IC50 stood at 1 nM against FGFR4 and 63 nM at FGFR1.

As to `COc1cc(OC)c(F)c(/C=C/c2cnc(NC(=O)N3CCCc4ccc(C=O)nc43)nc2)c1F` [Example 7, (E)-N-(5-(2,6-difluoro-3,5-dimethoxystyryl)pyrimidin-2-yl)-7-formyl-3,4-dihydro-1,8-naphthyridine-1(2H)-carboxamide], the IC50 at FGFR4 worked out at 0.9 nM; at FGFR1 it was 1000 nM.

`COc1cc(OC)c(F)c(C#Cc2cnc(NC(=O)N3CCCc4ccc(C=O)nc43)nc2)c1F` [Example 8, N-(5-((2,6-difluoro-3,5-dimethoxyphenyl)ethynyl)pyrimidin-2-yl)-7-formyl-3,4-dihydro-1,8-naphthyridine-1(211)-carboxamide]: the IC50 on FGFR4 was 2.5 nM; against FGFR1, 330 nM.

The values are drawn from US20220362245A1, “COMPOUNDS FOR INHIBITING FGFR4” (Terns Pharmaceuticals, Inc., priority 2019, published 2022).
